For series [1], the system named is luciferase with nonsense mutation in a specific codon context (UGAA, UGAC, UAAA or UAAC). Nature of the series: Western blot of luciferase protein produced by suppression of the nonsense mutation. The class given is cell-based, Human embryonic kidney cells (293 cells). The following applies: 293 cells treated with compound, continuation lines list further codon contexts. The text has this:
Nonsense suppression activity in an assay as described above is shown in the Table 3 below, for a construct with a UGA nonsense mutation at position 190, followed by a cytosine nucleotide in-frame, (UGAC); for a construct with UAG nonsense mutation at position 190, followed by an adenine nucleotide in-frame, (UAGA); for a construct with […] nonsense mutation at position 190, followed by an adenine nucleotide in-frame, (UAAA); and a construct with a UAA nonsense mutation at position 190, followed by an cytosine nucleotide in-frame, (UAAC). Also included in Table 3 is a column (“western blot”) indicating whether treatment of cells with the indicated compound suppresses the nonsense mutation in a specific codon context (UGAA, UGAC, UAAA or UAAC) in luciferase and results in production of luciferase protein as determined by a positive signal on a western blot. A positive result in the western blot assay is indicated by a “+” and the nonsense codon and context of the codon that is suppressed.
Another assay of the present invention can evaluate compounds that promote nonsense mutation suppression. The luciferase constructs described above in FIG. 1 are engineered to harbor two epitope tags in the N-terminus of the luciferase protein. Based on luciferase protein production, these constructs qualitatively assess the level of translation-readthrough. The presence of the full-length luciferase protein produced by suppression of the premature termination codon is measured by immunoprecipitation of the suppressed luciferase protein (using an antibody against a His tag) followed by western blotting using an antibody against the second epitope (the Xpress™ epitope; Invitrogen®; Carlsbad, Calif.). These constructs are depicted in FIG. 2.
Cells that harbor the constructs of FIG. 2 show increased full-length protein production when treated with a compound of the present invention. After treatment for 20 hours, cells containing the constructs of FIG. 2 are collected and an antibody recognizing the His epitope is used to immunoprecipitate the luciferase protein. Following immunoprecipitation, western blotting is performed using the antibody to the Xpress™ epitope (Invitrogen®; Carlsbad, Calif.) to detect the truncated luciferase (produced when no nonsense suppression occurs) and to detect the full-length protein (produced by suppression of the nonsense codon). Treatment of cells with a test compound produces full-length protein and not a readthrough protein (See e.g., FIG. 3). The readthrough protein is produced if suppression of the normal termination codon occurs. Compounds of the present invention suppress the premature, i.e. nonsense mutation, but not the normal termination codon in the luciferase mRNA.
Background: In western blotting, separated proteins are transferred to a membrane and probed.

Each structure is given as a SMILES string.

One may read the melting point as the temperature, or range, at which the solid turns liquid. The molecule `O=C(O)c1cccc(-c2ccn(-c3ccc(OC(F)(F)F)cc3)n2)c1` [Compound 66, 3-[1-(4-Trifluoromethoxy-phenyl)-1H-pyrazol-3-yl]-benzoic acid] displayed a melting point of 171 to 174 °C. Also, the “western blot: production of luciferase protein; + and the codon context that is suppressed” value (from here on “western blot: production”) in series [1] (UAAC codon context construct) is listed as “UAAC”. Besides, the “western blot: production” value in series [1] (UGAC codon context construct) was “+UGAC;”.

In turn, `O=C(O)c1ccc(-c2ccn(-c3ccc(C(F)(F)F)cc3)c2)cc1` [Compound 105, 4-[1-(4-Trifluoromethyl-phenyl)-1H-pyrrol-3-yl]-benzoic acid] gave a melting point of 315 to 317 °C. Also, the “western blot: production” value in series [1] (UAAA codon context construct) was “UAAA”. Also, in series [1] (UGAA codon context construct), the “western blot: production” value is listed as “+; UGAA;”. Also, the “western blot: production” value in series [1] (UGAC codon context construct) was “UGAC;”.

For `Cc1ccc(-n2cc(-c3cccc(C(=O)O)c3)cn2)cc1C` [Compound 237, 3-[1-(3,4-Dimethyl-phenyl)-1H-pyrazol-4-yl]-benzoic acid], the melting point lay in the range of 196 to 197 °C. For the same molecule, in series [1], the “western blot: production” value is “+; UGAC”.

Regarding `O=C(O)c1ccc(-n2cc(-c3ccc(Cl)cc3)nn2)cc1` [Compound 269, 4-[4-(4-Chloro-phenyl)-[1,2,3]triazol-1-yl]-benzoic acid], the melting point lay in the range of 313 to 314 °C.

As for `O=C(O)c1ccc(-n2cc(-c3ccccc3Br)nn2)cc1` [Compound 270, 4-[4-(2-Bromo-phenyl)-[1,2,3]triazol-1-yl]-benzoic acid], the melting point lay within 261 to 262 °C.

`O=C(O)c1ccc(-n2cc(-c3cccc4ccccc34)nn2)cc1` [Compound 271, 4-(4-Naphthalen-1-yl-[1,2,3]triazol-1-yl)-benzoic acid]: the melting point is 265 to 266 °C.

On to `COc1ccc(-c2cn(-c3ccc(C(=O)O)cc3)nn2)cc1OC` [Compound 272, 4-[4-(3,4-Dimethoxy-phenyl)-[1,2,3]triazol-1-yl]-benzoic acid], for which the melting point is 253 to 254 °C.

`CCOc1ccc(-c2cn(-c3ccc(C(=O)O)cc3)nn2)cc1` [Compound 273, 4-[4-(4-Ethoxy-phenyl)-[1,2,3]triazol-1-yl]-benzoic acid] returned a melting point of 310 to 311 °C.

In the case of `COc1ccc(-c2cn(-c3ccc(C(=O)O)cc3)nn2)c(C)c1` [Compound 274, 4-[4-(4-Methoxy-2-methyl-phenyl)-[1,2,3]triazol-1-yl]-benzoic acid], the melting point lay within 244 to 245 °C.

Molecule `CC(C)c1ccc(-c2cn(-c3ccc(C(=O)O)cc3)nn2)cc1` [Compound 275, 4-[4-(4-Isopropyl-phenyl)-[1,2,3]triazol-1-yl]-benzoic acid] displayed a melting point of 311 to 312 °C.

`CC(C)c1ccc(-n2nc(-c3ccc(C(=O)O)cc3)oc2=O)cc1` [Compound 276, 4-[4-(4-Isopropyl-phenyl)-5-oxo-4,5-dihydro-[1,3,4]oxadiazol-2-yl]-benzoic acid] gave a melting point of 263 to 267 °C.

`CC(C)c1ccc(-c2nn(-c3ccc(C(=O)O)cc3)c(=O)o2)cc1` [Compound 277, 4-[5-(4-Isopropyl-phenyl)-2-oxo-[1,3,4]oxadiazol-3-yl]-benzoic acid] registered a melting point of 252 to 254 °C.

The molecule `CC(C)c1ccc(-c2nn(Cc3ccc(C(=O)O)cc3)c(=O)o2)cc1` [Compound 278, 4-{[5-(4-isopropylphenyl)-2-oxo-1,3,4-oxadiazol-3(2H)-yl]methyl}benzoic acid] came in with a melting point of 217 to 219 °C.

Molecule `CC(C)c1ccc(-c2nn(-c3cccc(C(=O)O)c3)c(=O)o2)cc1` [Compound 279] gave a melting point of 218 to 220 °C.

Regarding `N#Cc1cccc(-c2nn(-c3ccc(C(=O)O)cc3)c(=O)o2)c1` [Compound 280, 4-[5-(3-cyanophenyl)-2-oxo-1,3,4-oxadiazol-3(2H)-yl]benzoic acid], the melting point is 294 to 295 °C (dec.).

The molecule `CC(C)c1ccc(-c2nn(-c3ccc(C(=O)O)cc3)c(=O)s2)cc1` [Compound 281, 4-[5-(4-isopropylphenyl)-2-oxo-1,3,4-thiadiazol-3(2H)-yl]benzoic acid] registered a melting point of 205 to 208 °C.

Consider `CC(C)c1ccc(-c2nn(-c3ccc(C(=O)O)cc3)c(=S)s2)cc1` [Compound 282, 4-[5-(4-Isopropyl-phenyl)-2-thioxo-[1,3,4]thiadiazol-3-yl]-benzoic acid], for which the melting point fell in the range of 176 to 179 °C.

Turning to `CC(C)c1ccc(-c2nn(-c3cccc(C(=O)O)c3)c(=S)o2)cc1` [Compound 283, 3-[5-(4-Isopropyl-phenyl)-2-thioxo-[1,3,4]oxadiazol-3-yl]-benzoic acid], the melting point was 215 to 217 °C.

Molecule `CC(C)c1ccc(-c2nn(-c3cccc(C(=O)O)c3)c(=O)s2)cc1` [Compound 284, 3-[5-(4-Isopropyl-phenyl)-2-oxo-[1,3,4]thiadiazol-3-yl]-benzoic acid] gave a melting point of 220 to 221 °C.

`CC(C)c1ccc(-c2nn(-c3ccc(C(=O)O)cc3)c(=S)o2)cc1` [Compound 285, 4-[5-(4-Isopropyl-phenyl)-2-thioxo-[1,3,4]oxadiazol-3-yl]-benzoic acid] had a melting point of 239 to 240 °C.

`CC(C)c1ccc(-c2ccn(-c3cccc(C(=O)O)c3)c2)cc1` [Compound 287]: the melting point lay in the range of 244 to 245 °C.
